Measured values from PubChem BioAssay (NCI).
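Growth conditions: 96-well plates. Treatment: test compound, 48 hours, 5 concentrations. Analysis: linear interpolation between bracketing concentrations; unreached endpoints set to highest concentration. GI50 is the concentration that inhibits growth by half. The concentration for full growth arrest is given as TGI.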

Assays:
Test in all cases: inhibition of tumour cell growth, NCI panel, 48 h
[1] = test system: A549 NSCLC
[2] = test system: ACHN renal
[3] = test system: SK-MEL-28 melanoma
[4] = test system: SR leukemia
[5] = test system: SF-539 CNS
[6] = test system: MCF7 breast
[7] = test system: HL-60(TB) leukemia
[8] = test system: SK-MEL-5 melanoma
[9] = test system: NCI-H23 lung
[10] = test system: OVCAR-3 ovarian

SMILES | GI50 [1] [µM] | TGI [1] [µM] | GI50 [2] [µM] | TGI [2] [µM] | GI50 [3] [µM] | TGI [3] [µM] | GI50 [4] [µM] | TGI [4] [µM] | GI50 [5] [µM] | GI50 [6] [µM] | TGI [6] [µM] | GI50 [7] [µM] | TGI [7] [µM] | GI50 [8] [µM] | TGI [8] [µM] | GI50 [9] [µM] | TGI [9] [µM] | GI50 [10] [µM] | TGI [10] [µM] | TGI [5] [µM]
COc1ccc(C(=O)c2cc3c(N)c(C(=O)Nc4cccc5ccccc45)sc3nc2C)cc1 | 0.266 | > 50 | 0.364 | > 50 | > 50 | > 50 | 0.161 | > 50 | 0.126 | 0.191 | > 50 | 0.15 | 0.503 | 0.193 | 1.4 | 0.334 | > 50 | 0.156 | > 50 | –
CC(C)(O)CC(=O)NCCn1ccc2ncnc(Nc3ccc(Oc4cccc(C(F)(F)F)c4)c(Cl)c3)c21 | 3.05 | > 10 | 1.15 | > 10 | 4.43 | > 10 | 2.14 | > 10 | 4.03 | 2.98 | > 10 | 2.88 | > 10 | 2.84 | > 10 | 3.76 | > 10 | 2.42 | > 10 | > 10
CCc1ccc(NC(=O)COC(=O)c2cc([N+](=O)[O-])ccc2Sc2nnnn2C)cc1 | 19.7 | 53.1 | 14.2 | 33.1 | 9.94 | 28.8 | 4.05 | > 100 | 16.7 | 20.1 | 60.6 | 18.8 | 49.7 | 4.64 | 18 | 9.79 | 34.6 | 11.7 | 25.4 | 42.8
Cn1cc(C2=C(c3cccc(OCC(O)CO)c3)C(=O)NC2=O)c2ccccc21 (stereo not given) | > 25 | > 25 | > 25 | > 25 | > 25 | > 25 | > 25 | > 25 | > 25 | > 25 | > 25 | > 25 | > 25 | > 25 | > 25 | > 25 | > 25 | > 25 | > 25 | > 25
Nc1nc(Nc2ccc(C3CCC(N4CCOCC4)CC3)cc2)nn1-c1ccccn1 (stereo not given) | 4.08 | > 100 | 4.26 | > 100 | 4.34 | 16.4 | 0.366 | 3.29 | 1.42 | 3.23 | 35.3 | 2.55 | 9.96 | 20.8 | > 88.3 | 2.61 | 47.7 | 9.86 | 44.6 | 4.99
CN1CC[C@@H](c2c(O)cc(O)c3c(=O)cc(-c4ccccc4Cl)oc23)[C@@H]1CO | 0.368 | > 10 | 0.294 | > 10 | 0.27 | 1.24 | 0.107 | 0.573 | 0.275 | 0.241 | > 10 | 0.313 | 1.99 | – | – | 0.288 | 3.03 | 0.278 | 2.17 | 0.863
CC1(C)C2C=CC1(C)C1(CC2)OCCO1 (stereo not given) | – | – | – | > 100 | – | > 100 | – | > 100 | – | – | > 100 | – | > 100 | – | – | – | > 100 | – | > 100 | > 100
